Consider 2 compounds from PMC8026769 (Molecular microbiology, 2020).

The structures appear in SMILES notation.

Experiment [1] addresses T1, LpThi5 (LpThi5-His6; Lpg1565) (Legionella pneumophila, UniProt Q5ZV75).
The target of experiment [2] is T1, LpThi5 (LpThi5-His6; Lpg1565). The source holds these as a separate data set.

T1 sequence (Q5ZV75 whole entry, looked up): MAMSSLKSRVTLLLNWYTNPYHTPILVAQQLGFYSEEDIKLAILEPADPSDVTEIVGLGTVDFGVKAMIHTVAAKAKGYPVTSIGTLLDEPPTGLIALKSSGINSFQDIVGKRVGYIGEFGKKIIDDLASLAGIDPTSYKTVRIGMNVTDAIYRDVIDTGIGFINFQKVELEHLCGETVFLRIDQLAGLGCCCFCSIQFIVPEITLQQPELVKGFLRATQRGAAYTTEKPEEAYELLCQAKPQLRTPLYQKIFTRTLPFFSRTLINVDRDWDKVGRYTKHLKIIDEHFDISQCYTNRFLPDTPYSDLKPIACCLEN

In experiment [1], `Cc1ncc(COP(=O)(O)O)c(C=O)c1O` [PLP, pyridoxal-5’-phosphate] came in with a PLP occupancy of 63 ± 2%.

Turning to `Cc1ncc(CO)c(N)n1` [HMP, 2-methyl-4-amino-5-hydroxymethylpyrimidine], in experiment [2], the “bioassay, HPLC and MALDI-TOF MS of released product” value was “MALDI-TOF MS identified the active molecule as HMP”.
